In patent publication US11174243B2, “Succinate forms and compositions of Bruton's tyrosine kinase inhibitors” (Sunesis Pharmaceuticals, Inc., priority 2016, dated 2021):

Tests used:
Single-dose PK in rat = type: in vivo, male Sprague Dawley rats; conditions: male, Sprague Dawley, plasma
Protocol: A series of single-dose PK studies were conducted in rat, dog, and monkey to investigate the plasma PK of Compound 2 following single oral and single intravenous (IV) administration of Compound 2.
The PK profile of Compound 2 was evaluated in male Sprague Dawley rats (n=3) following single IV administration of Compound 2 at 1 mg/kg and single oral administration at 5 mg/kg. Following each administration serial blood samples were collected at 0 (predose), 0.08, 0.25, 0.5, 0.75, 2, 5, 10, and 24 hours postdose.

human recombinant WT BTK = human recombinant WT BTK (Homo sapiens, UniProt Q06187); assay: FRET recombinant kinase assay, WT BTK; type: biochemical
Sequence of human recombinant WT BTK (Q06187 whole entry): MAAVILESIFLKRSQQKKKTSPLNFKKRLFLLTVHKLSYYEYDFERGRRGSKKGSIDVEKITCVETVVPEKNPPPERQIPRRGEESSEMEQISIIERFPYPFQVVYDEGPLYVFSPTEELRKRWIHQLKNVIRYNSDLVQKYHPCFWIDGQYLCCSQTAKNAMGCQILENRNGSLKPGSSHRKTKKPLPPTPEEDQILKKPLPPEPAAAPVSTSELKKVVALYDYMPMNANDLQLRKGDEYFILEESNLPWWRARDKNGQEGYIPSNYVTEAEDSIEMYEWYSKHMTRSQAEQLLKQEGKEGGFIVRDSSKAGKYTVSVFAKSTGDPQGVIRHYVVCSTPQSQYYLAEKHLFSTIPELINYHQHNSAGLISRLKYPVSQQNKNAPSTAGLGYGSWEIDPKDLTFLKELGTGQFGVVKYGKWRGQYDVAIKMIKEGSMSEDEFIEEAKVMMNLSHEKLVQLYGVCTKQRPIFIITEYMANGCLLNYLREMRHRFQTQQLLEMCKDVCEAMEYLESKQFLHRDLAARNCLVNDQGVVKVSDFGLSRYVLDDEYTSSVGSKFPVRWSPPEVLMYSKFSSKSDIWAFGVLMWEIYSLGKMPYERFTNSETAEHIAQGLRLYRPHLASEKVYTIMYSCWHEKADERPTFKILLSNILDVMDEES

[1] = tested on: primary CLL cells in the presence of HS5 stromal protection; assay: Viability of primary CLL cells in stromal co-culture (7AAD); type: cell-based; conditions: Homo sapiens, CLL cell, 48 hours, read-out: decrease of viability
Protocol: Methods: Primary CLL B cells were isolated from the whole blood of consented patients by FICOLL density centrifugation and rosette-sep negative selection. Annexin V and propidium iodide flow cytometry was used to measure patient CLL cell viability and 7AAD was used to measure viability in stromal co-culture. CD40 and CD86 expression was evaluated via flow cytometry subsequent to sustained 3.2 μM CpG stimulation. BCR signaling in primary CLL cells was investigated by immunoblot succeeding 1 hour treatment and following 1 hour or 24 hours of incubation with Compound 1 in XLA cell lines. MTS values were read after 24 hours of drug incubation. ITK inhibition was investigated via immunoblot after stimulation with anti-CD3 and anti-CD28 and incubation with Compound 1 for 1 hour. Compound 1 was used at a concentration of 1 μM in preclinical studies unless otherwise noted.

BTK = biological target: T1, BTK (Homo sapiens, UniProt Q06187); assay: Phase 1a single-dose study in humans: BTK inhibition (pBTK) in whole blood; type: in vivo
T1 construct: from tissue; host or cells: human whole blood
T1 sequence (Q06187 whole entry): as above
Protocol: The primary endpoint of safety was assessed by monitoring adverse events (AEs), laboratory abnormalities, and cardiac findings (ECG). Secondary endpoints included evaluation of the PK parameters of area under the plasma concentration-time curve (AUC), maximum plasma concentration (Cmax), time of maximum concentration (Tmax), apparent volume of distribution (Vd/F), terminal elimination half-life (t1/2), terminal elimination rate constant (λz), and apparent clearance (Cl/F) as well as the PD parameter of BTK inhibition in whole blood. BTK inhibition was calculated based on phosphorylated BTK (pBTK) and total BTK (totBTK). All postdose blood samples and one predose sample were lysed in the presence of protease and phosphatase inhibitors (PPi); a second predose sample was lysed without PPi to estimate maximum reduction in pBTK attainable. The ratio of predose pBTK/totBTK without PPi was subtracted from each pBTK/totBTK with PPi, and % pBTK vs predose was calculated: […]

TEC = biological target: T2, TEC (Homo sapiens, UniProt P42680); assay: In vitro kinase assay, TEC
T2 sequence (P42680 1-631): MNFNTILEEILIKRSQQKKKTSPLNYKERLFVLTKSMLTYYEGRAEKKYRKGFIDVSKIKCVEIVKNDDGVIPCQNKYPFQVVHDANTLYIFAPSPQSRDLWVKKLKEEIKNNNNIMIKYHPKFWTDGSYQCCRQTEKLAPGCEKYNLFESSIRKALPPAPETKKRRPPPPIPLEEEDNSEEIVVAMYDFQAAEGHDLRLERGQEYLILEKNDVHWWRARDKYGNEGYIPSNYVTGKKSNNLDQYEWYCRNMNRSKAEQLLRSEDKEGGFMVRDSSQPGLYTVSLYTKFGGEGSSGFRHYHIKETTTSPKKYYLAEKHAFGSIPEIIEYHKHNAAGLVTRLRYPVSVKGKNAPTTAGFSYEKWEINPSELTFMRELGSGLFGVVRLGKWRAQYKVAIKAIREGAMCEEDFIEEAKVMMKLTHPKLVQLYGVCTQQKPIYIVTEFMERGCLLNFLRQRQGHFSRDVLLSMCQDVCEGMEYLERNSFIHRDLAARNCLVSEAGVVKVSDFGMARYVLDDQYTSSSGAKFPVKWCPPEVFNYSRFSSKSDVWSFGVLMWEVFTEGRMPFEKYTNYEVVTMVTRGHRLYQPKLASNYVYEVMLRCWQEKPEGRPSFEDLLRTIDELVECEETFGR

[2] = 1 mg/kg, IV, dose 1, SPEW, free base measured
[3] = 5 mg/kg, PO, dose 5, 0.1% CMC/0.2% Tween, free base measured

AUC(0-inf) (Single-dose PK in rat; [2]) [ng·h/mL] | C0 (Single-dose PK in rat; [2]) [ng/mL] | half-life (Single-dose PK in rat; [2]) [h] | AUC(0-inf) (Single-dose PK in rat; [3]) [ng·h/mL] | Cmax (Single-dose PK in rat; [3]) [ng/mL] | Tmax (Single-dose PK in rat; [3]) [h] | bioavailability (Single-dose PK in rat; 5 mg/kg, PO, dose 5, 0.1% CMC/0.2% Tween, read-out: % F (oral bioavailability)) [%] | IC50 (human recombinant WT BTK) [µM] | % BTK inhibition (BTK; Compound 1 plasma concentrations lower or close to 100 ng/mL) [%] | inhibition of pBTK (BTK; Compound 1 plasma concentrations ≥200 ng/mL) [%] | inhibition of pBTK (BTK; all dose levels, rapid, profound and prolonged, FIG. 13) [%] | inhibition (pBTK) (BTK; plasma concentrations above 1000 ng/mL, most of the subjects, largely around 100%) [%] | IC50 (TEC) [µM] | SMILES | cytotoxicity at 1 µM [1] [%]
16100 | 4370 | 4 | 14600 | 1780 | 2.6 | 18 |  |  |  |  |  |  | NC(=O)[C@H]1CCN(c2ncnc(N)c2F)C[C@@H]1N1CCC[C@@H](Nc2cc(Cl)cc(C(F)(F)F)c2)C1=O [Compound 2] | 
 |  |  |  |  |  |  | 0.0046 | ≤ 75 | ≥ 85 | ~100 | > 85 | 0.019 | NC(=O)[C@H]1CCN(c2ncnc(N)c2F)C[C@@H]1N1CCC[C@@H](Nc2cc(Cl)cc(C(F)(F)F)c2)C1=O [Compound 1, (3R,3′R,4′S)-1′-(6-amino-5-fluoropyrimidin-4-yl)-3-((3-chloro-5-(trifluoromethyl)phenyl)amino)-2-oxo-[1,3′-bipiperidine]-4′-carboxamide] | 5.5
